One compound from patent US5389661A, “Imidazole and 1,2,4-triazole derivatives with angiotensin II antagonist properties” (Warner-Lambert Company, priority 1994, dated 1995) can be followed below.

The test has as its target T1, angiotensin II receptor (rat liver membranes) (Rattus norvegicus, UniProt P25095).
T1 construct: from tissue; host or cells: rat liver membranes
T1 sequence (P25095 1-359): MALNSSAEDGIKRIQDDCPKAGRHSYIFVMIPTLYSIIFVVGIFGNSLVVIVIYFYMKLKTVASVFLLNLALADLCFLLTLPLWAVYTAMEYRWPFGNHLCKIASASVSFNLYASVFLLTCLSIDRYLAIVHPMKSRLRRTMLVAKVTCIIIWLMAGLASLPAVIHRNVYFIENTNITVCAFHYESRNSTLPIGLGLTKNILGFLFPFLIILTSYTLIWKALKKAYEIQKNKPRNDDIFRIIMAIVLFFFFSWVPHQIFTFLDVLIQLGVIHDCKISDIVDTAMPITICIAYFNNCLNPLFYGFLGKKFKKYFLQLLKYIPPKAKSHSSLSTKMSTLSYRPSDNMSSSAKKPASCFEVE
Briefly: RBAT1, Receptor Binding of Angiotensin II: inhibition of tritiated angiotensin II binding to rat liver membranes. The conditions noted are these: in vitro. The protocol: The effectiveness of the compounds of the instant invention is determined by a test (RBAT1) entitled Receptor Binding of Angiotensin II.

`CCCc1ncc(/C=C2/C(=O)N(CC(=O)O)c3ccccc32)n1Cc1ccc(C(=O)O)cc1` [Example 9, (E)-3-[[3-[(4-carboxyphenyl)methyl]-2-propyl-3H-imidazol-4-yl]methylene]-2,3-dihydro-2-oxo-1H-indole-1-acetic acid] came in with an IC50 of 98 nM. That is a double-digit nanomolar value.

For orientation: IC50 means the concentration needed to halve the response being measured. Read a high IC50 as a need for much substance.
